The values below come from patent publication US20220339138A1, “METHODS AND COMPOSITIONS FOR TREATMENT OF RETT SYNDROME” (ACADIA PHARMACEUTICALS INC., priority 2019, published 2022).

For orientation: AUC(0-t) means the area under the concentration-time curve up to a stated or last time point. A lower AUC(0-t) goes with less exposure. Broadly, the bioavailability is dose-corrected exposure relative to a reference, in per cent. For orientation: clearance means the volume of plasma or blood freed of the substance per unit of time.

“Also recorded” adds a separate entry of the source. Where two headings read alike, the source gives them in different places. Square brackets hold non-standard residues; d marks the D form. Peptide text beside a SMILES is read from it. αMeP = C[C@@]1(C(=O)O)CCCN1 Some results are limits rather than exact numbers.

For one series, the system named is MeCP2 mutant mice. To be noted: MeCP2 mutant mice (Tropea et al. 2009); cited from earlier work.
Series [1] concerns children with Rett syndrome 2 to 10 years of age. To be noted: Phase 2 trial (O'Leary et al. 2018); cited from earlier work.
A further series in a line: clinical. Particulars: human, in vivo. As to the method: These pharmacokinetic results are in agreement with the data obtained previously in healthy subjects and in adolescent and adult RTT patients.
Therefore, the upper levels of exposure in the 200 mg/kg BID dose level were considered to be effective and thus an appropriate target exposure level. Thus, dosing strategies were developed with the aim of providing a minimal target exposure of 800 μg/mL·h, corresponding approximately to the 90-100% AUC quantile of exposure (AUC0-12) observed in the children/adolescents study for the nominal dose of 200 mg/kg BID. With weight-banding, a greater proportion of subjects is expected to achieve the target drug exposure.

Series [2] in a line: Population pharmacokinetic model from 9 clinical studies. To be noted: final population PK model, population mean. It is filed as in vivo, human. The source says:
Data for the population PK model development of trofinetide came from 5 Phase 1 studies and 4 Phase 2 studies, including patients with Rett syndrome and other diseases. A total of 3058 trofinetide concentration records collected in 290 subjects were available for potential use in the analysis. A blend of full-profile and sparse data from 94 healthy volunteers, 93 patients with Rett syndrome (adult and pediatric), 103 patients with other diseases was available for this analysis.
Key steps for the development of the trofinetide population PK model were: 1) exploratory data analysis; 2) base structural model development via application, re-estimation, and refinement of a population PK model using pooled data from 9 clinical studies; 3) evaluation of covariate effects using forward selection; 4) full multivariable model evaluation: 5) backward elimination of covariates; 6) final model refinement; and 7) model evaluation. The continuous covariates evaluated included age, body weight, body mass index (BMI), estimated glomerular filtration rate, total bilirubin, alanine aminotransferase, and aspartate aminotransferase. The only categorical covariate evaluated was a combination of sex and disease state (SEXDS), where: SEXDS=0 for male healthy volunteers, SEXDS=1 for female healthy volunteers, SEXDS=2 for patients with Rett (female only), SEXDS=3 for patients with other disease A (male only), SEXDS=4 for male patients with other disease B, and SEXDS=5 for female patients with other disease B. The covariate analysis used a standard forward selection-backward elimination method to identify statistically significant (α=0.001) predictors of PK variability that also explained a sufficient proportion of interindividual variability (IIV) for the respective PK parameter upon which they were tested (that is, reducing IV by ≥5%). The final PK model was validated using a simulation-based, prediction-corrected visual predictive check (pcVPC) methodology to assess concordance between the model-based simulated data and the observed data.
A total of 2759 trofinetide plasma concentrations in 281 subjects were used in the development of the population PK model. The analysis dataset comprised subjects with a median (range) age of 22 (5 to 64) years and a median (range) body weight of 65.6 (15.1 to 139.6) kg, with 52.8% of the analysis population being male and 47.2% female.
The final population PK model for trofinetide was a 2-compartment model with first-order absorption, linear elimination, and 2 separate exponential error models for healthy volunteers and patients. The model included separate bioavailability terms for oral dosing (relative bioavailability [F1]) and dosing via gastric tube (F1G). Interindividual variability was estimated for first-order absorption (ka), clearance (CL), central volume of distribution (Vc), peripheral volume of distribution (Vp), and intercompartmental clearance (Q) using exponential error models.
A total of 4 covariate-parameter relationships were included in the final population PK model. […] Therefore, the final PK model included body weight as a significant predictor of both CL (as a power function) and Vc (as a power function), and SEXDS as a significant predictor of both CL (as a proportional function) and Vc (as a proportional function).

The test system of series [3] is patients with Rett syndrome. Briefly: CGI-I exposure-response model. Also noted: species or system human. Particulars: refined population PK and E-R models. As to the method: Exposure-response analyses of the CGI-I scores were performed on data from patients with Rett syndrome with available trofinetide exposure estimates, plus placebo patients. All of the patients included in this analysis had at least 1 CGI-I score measured after trofinetide or placebo dosing. Data from 52 adult patients with Rett syndrome and 81 pediatric patients with Rett syndrome were pooled for this analysis.
The endpoints used for E-R efficacy modeling include CGI-I scores from two clinical studies and RSBQ scores from one clinical study. The CGI-I scores were measured on Days 5, 14, 17, and 26 and CGI-I scores were measured on Days 21, 28, 42, and 54. All patients received placebo for the first 14 days, so Day 14 was treated as the “true baseline” for trofinetide treatment. The RSBQ scores were collected on Days 14, 28, 42 and 54.
The overall procedures followed for the development of the E-R models for CGI-I and RSBQ scores were: 1) generation of individual estimates of exposure based on the population PK model; 2) exploratory data analysis; 3) base structural model development incorporating drug exposure effects; 4) evaluation of covariate effects, 5) final model refinement; and 6) model evaluation. Covariates evaluated in the analysis of efficacy endpoints were age, body weight, and BMI. […]

The subject of another series is girls and women with RTT. Briefly: Phase 2 clinical studies of trofinetide in Rett syndrome (efficacy, tolerability). It is filed as in vivo, human. The protocol:
Rett syndrome is a devastating disorder for which there is as yet no treatment beyond symptomatic care resulting in a great unmet medical need. […] Exposure-response analyses of RSBQ scores were performed on data from pediatric patients with Rett syndrome with available trofinetide exposure estimates, plus placebo patients. All of the patients included in this analysis had at least 1 RSBQ score measured after trofinetide or placebo dosing. The RSBQ E-R analysis dataset included only the 81 pediatric patients with Rett syndrome. The endpoints used for E-R efficacy modeling include CGI-I scores from two clinical studies and RSBQ scores from one clinical study. The CGI-I scores were measured on Days 5, 14, 17, and 26 and CGI-I scores were measured on Days 21, 28, 42, and 54. All patients received placebo for the first 14 days, so Day 14 was treated as the “true baseline” for trofinetide treatment. The RSBQ scores were collected on Days 14, 28, 42 and 54.

For series [4] the following is noted: cited from earlier work.
For series [5] the following is noted: following oral administration; cited from earlier work.
The mark [6] stands for this setting: 50 mg/kg BID, pediatric RTT patients.
Where [7] appears, read: 100 mg/kg BID, pediatric RTT patients.
[8] abbreviates: 200 mg/kg BID, pediatric RTT patients.

Turning to glycine-proline-glutamate [GPE], the “effect on Rett-like symptoms” value in the series with MeCP2 mutant mice was “reversed Rett-like symptoms”.
In the case of “mecasermin: recombinant human IGF-1, a compound related to trofinetide”, the “CSBS-DP-IT, active treatment group compared to placebo” value in series [1] is listed as “evidence of benefit”.
Consider `C[C@@]1(C(=O)N[C@@H](CCC(=O)O)C(=O)O)CCCN1C(=O)CN` [trofinetide, (2S)-2-[[(2S)-1-(2-aminoacetyl)-2-methylpyrrolidine-2-carbonyl]amino]pentanedioic acid] (H-Gly-[αMeP]-Glu-OH), for which the “effect of body weight on clearance and central volume of distribution” value in “clinical” is “significant effect”. The compound further returned an AUC(0-t) in “clinical” (200 mg/kg) not below 790 µg·h/mL. The bioavailability in series [2] (both sexes, human, plasma, other: gastric tube, read-out: F1G: Gastric Tube Bioavailability) amounted to 84.7%. In addition, the bioavailability in series [2] (both sexes, human, plasma, po, read-out: F1: Oral Bioavailability) is 77%. The clearance in series [2] (both sexes, human, plasma, read-out: CL: Central Clearance (converted)) was 192 mL/min. For the same compound, in series [2], the “Q: Distribution Clearance” value is listed as 1.02 L/h, the “Vc: Central Volume” value is 22.2 L, the “Vc: Exponent of (WTKG/65) for Vc” value was determined as 0.770 and the “Vc: Proportional Shift in Vc for Rett = 1” value is listed as −0.562. Besides, in series [2], the “Vc: Proportional Shift in Vc for disease B = 1” value was −0.374, the “Vp: Peripheral Volume” value was 53.0 L and the “ka: First-Order Absorption Rate Constant” value turned out to be 0.195 h⁻¹. Moreover, in series [3], the “association of higher trofinetide exposure with improvement in Rett syndrome (CGI-I and RSBQ scores) compared to placebo” value was “greater improvement”. In the series on girls and women with RTT (200 mg/kg BID, Phase 2), the “clinical efficacy versus placebo” value was “evidence of clinical efficacy; also recorded: benefit compared to placebo”. Further, in the series on girls and women with RTT (200 mg/kg twice daily (BID), over 54 days, pediatric patients with Rett syndrome), the “median percent change in RSBQ scores from baseline” value is −14.4%. In the series on girls and women with RTT (exploratory analyses, Phase 2), the “PK/PD relationship (exposure versus RSBQ, RTT-DSC, CGI-I)” value is given as “positive PK/PD relationship”. The tolerability entry with girls and women with RTT (two studies in girls and women with RTT) is on record as “well tolerated”. Moreover, in series [4] (setting [6]), the “median AUC(0-12ss)” value was 139.4 µg·h/mL and the “median Cmax” value is 17.7 µg/mL. In addition, in series [4] (setting [7]), the “median AUC(0-12ss)” value was 338.6 µg·h/mL and the “median Cmax” value was 52.6 µg/mL. Also, in series [4] (setting [8]), the “median AUC(0-12ss)” value is 505.1 µg·h/mL and the “median Cmax” value was 82.2 µg/mL. Moreover, the “accumulation, metabolic inhibition, or induction during treatment” value in series [4] (Phase 2 studies) is given as “no accumulation, metabolic inhibition, or induction”. Moreover, the “pharmacokinetics across the dose range tested” value in series [4] (pediatric RTT patients) was “linear pharmacokinetics”. The blood-brain barrier passage result in series [5] was “crosses the blood-brain barrier”.
